# According to paper PMC12073449, “Development of a Mechanism of Action-Reflective Cell-Based Reporter Gene Assay for Measuring Bioactivities of Therapeutic Glucagon-like Peptide-2 Analogues” (Molecules, 2025):
# Ends that are not written are not given here.
# Test system: HEK293-GLP-2R-Luc cells
substance,measurement,setting,value
HGEGTFSSELATILDALAARDFINWLIATKITDKKKKKK-NH2 [glepaglutide],log2 (TD/Ctrl) CYP1B1,,1.052
same,log2 (TD/Ctrl) CYP4V2,,−1.198
same,log2 (TD/Ctrl) CYP4 × 1,,−1.963
same,log2 (TD/Ctrl) TRPV1,Qvalue 0.001125,−1.038
same,log2 (TD/Ctrl) NEK8,Qvalue 0.001147,−1.057
same,log2 (TD/Ctrl) METTL25,Qvalue 0.001214,−1.045
same,log2 (TD/Ctrl) ITGA8,Qvalue 0.001396,−1.102
same,log2 (TD/Ctrl) UBOX5,Qvalue 0.00141,1.051
same,log2 (TD/Ctrl) CC2D2A,Qvalue 0.001438,−1.1174
same,log2 (TD/Ctrl) DERL3,Qvalue 0.001478,−1.237
same,log2 (TD/Ctrl) ADAM12,Qvalue 0.001549,1.112
same,log2 (TD/Ctrl) RBPMS2,Qvalue 0.001565,1.069
same,log2 (TD/Ctrl) RBM11,Qvalue 0.001608,1.143
same,log2 (TD/Ctrl) SLCO2A1,Qvalue 0.001637,1.773
same,log2 (TD/Ctrl) AMH,Qvalue 0.001638,−1.122
same,log2 (TD/Ctrl) EMP1,Qvalue 0.001666,1.518
same,log2 (TD/Ctrl) RNLS,Qvalue 0.001684,2.251
same,log2 (TD/Ctrl) AATK,Qvalue 0.001714,1.156
same,log2 (TD/Ctrl) ZSWIM4,Qvalue 0.001797,1.054
same,log2 (TD/Ctrl) NGEF,Qvalue 0.001858,1.549
same,log2 (TD/Ctrl) LOC124901228,Qvalue 0.002022,−1.299
same,log2 (TD/Ctrl) HILPDA,Qvalue 0.00213,−1.215
same,log2 (TD/Ctrl) GPRASP3,Qvalue 0.002224,−1.474
same,log2 (TD/Ctrl) SRGAP3,Qvalue 0.002313,−1.063
same,log2 (TD/Ctrl) PPEF1,Qvalue 0.002369,1.543
same,log2 (TD/Ctrl) BOK,Qvalue 0.002402,1.599
same,log2 (TD/Ctrl) PRR7,Qvalue 0.002734,1.209
same,log2 (TD/Ctrl) SAT1,Qvalue 0.002832,2.416
same,log2 (TD/Ctrl) SDHAF4,Qvalue 0.002952,1.018
same,log2 (TD/Ctrl) IL7R,Qvalue 0.003482,2.4
same,log2 (TD/Ctrl) RHOB,Qvalue 0.003482,2.852
same,log2 (TD/Ctrl) CCDC61,Qvalue 0.003634,1.663
same,log2 (TD/Ctrl) H2BC21,Qvalue 0.004109,1.259
same,log2 (TD/Ctrl) CXCL12,Qvalue 0.004272,−2.422
same,log2 (TD/Ctrl) UGT3A1,Qvalue 0.004706,3.069
same,log2 (TD/Ctrl) MYPN,Qvalue 0.005296,2.401
same,log2 (TD/Ctrl) PTPRN,Qvalue 0.005327,3.046
same,log2 (TD/Ctrl) RHBDF1,Qvalue 0.005404,1.083
same,log2 (TD/Ctrl) KLF2,Qvalue 0.005739,1.928
same,log2 (TD/Ctrl) SH2D2A,Qvalue 0.005953,2.922
same,log2 (TD/Ctrl) SYT4,Qvalue 0.005991,2.338
same,log2 (TD/Ctrl) NTRK2,Qvalue 0.006147,1.454
same,log2 (TD/Ctrl) PLPP2,Qvalue 0.006233,1.309
same,log2 (TD/Ctrl) ATG16L2,Qvalue 0.006489,1.087
same,log2 (TD/Ctrl) ASGR1,Qvalue 0.00679,2.135
same,log2 (TD/Ctrl) DHRS9,Qvalue 0.007207,2.367
same,log2 (TD/Ctrl) SH2D5,Qvalue 0.00738,1.053
same,log2 (TD/Ctrl) SLC30A3,Qvalue 0.007467,1.182
same,log2 (TD/Ctrl) SHANK2,Qvalue 0.007984,2.035
same,log2 (TD/Ctrl) NAA80,Qvalue 0.008009,1.249
same,log2 (TD/Ctrl) CLIP2,Qvalue 0.008212,1.052
same,log2 (TD/Ctrl) LOC128125822,Qvalue 0.008527,2.711
same,log2 (TD/Ctrl) RND1,Qvalue 0.008622,1.057
same,log2 (TD/Ctrl) SH3RF2,Qvalue 0.008648,1.516
same,log2 (TD/Ctrl) DUSP2,Qvalue 0.008669,3.424
same,log2 (TD/Ctrl) MAGED4,Qvalue 0.009809,−1.159
same,log2 (TD/Ctrl) MAP6,Qvalue 0.009857,1.691
same,log2 (TD/Ctrl) TMEM225B,Qvalue 0.010366,1.448
same,log2 (TD/Ctrl) CHRD,Qvalue 0.010428,1.261
same,log2 (TD/Ctrl) FNTB,Qvalue 0.011191,−1.039
same,log2 (TD/Ctrl) MARVELD3,Qvalue 0.011267,1.031
same,log2 (TD/Ctrl) FSTL4,Qvalue 0.011445,1.312
same,log2 (TD/Ctrl) POC1B-GALNT4,Qvalue 0.011547,−1.319
same,log2 (TD/Ctrl) GDPGP1,Qvalue 0.011565,−1.43
same,log2 (TD/Ctrl) CREG2,Qvalue 0.012071,1.949
same,log2 (TD/Ctrl) CERS4,Qvalue 0.01208,1.131
same,log2 (TD/Ctrl) ANKRD1,Qvalue 0.012462,2.953
same,log2 (TD/Ctrl) PLEKHN1,Qvalue 0.012462,2.21
same,log2 (TD/Ctrl) KRT75,Qvalue 0.012583,2.099
same,log2 (TD/Ctrl) ALDH1L2,Qvalue 0.012744,1.303
same,log2 (TD/Ctrl) GUCA1B,Qvalue 0.013456,1.026
same,log2 (TD/Ctrl) SH2D3A,Qvalue 0.013825,1.146
same,log2 (TD/Ctrl) CATSPERE,Qvalue 0.013837,−2.496
same,log2 (TD/Ctrl) TFEB,Qvalue 0.014032,1.085
same,log2 (TD/Ctrl) SCN2A,Qvalue 0.014161,−2.494
same,log2 (TD/Ctrl) FAM47E-STBD1,Qvalue 0.014365,6.132
same,log2 (TD/Ctrl) IL11,Qvalue 0.014439,2.543
same,log2 (TD/Ctrl) ICOSLG,Qvalue 0.015122,1.337
same,log2 (TD/Ctrl) HHIP,Qvalue 0.016047,1.114
same,log2 (TD/Ctrl) COL15A1,Qvalue 0.016322,2.733
same,log2 (TD/Ctrl) ADAMTSL1,Qvalue 0.016921,1.769
same,log2 (TD/Ctrl) AJM1,Qvalue 0.017304,−1.327
same,log2 (TD/Ctrl) RASGRP3,Qvalue 0.017723,1.426
same,log2 (TD/Ctrl) ZNF233,Qvalue 0.018109,−1.102
same,log2 (TD/Ctrl) ADM2,Qvalue 0.018318,1.127
same,log2 (TD/Ctrl) FMNL1,Qvalue 0.018333,1.446
same,log2 (TD/Ctrl) PHF24,Qvalue 0.018911,1.839
same,log2 (TD/Ctrl) MAP2,Qvalue 0.019619,−1.138
same,log2 (TD/Ctrl) BCL3,Qvalue 0.020272,1.728
same,log2 (TD/Ctrl) EXO5,Qvalue 0.020878,−1.023
same,log2 (TD/Ctrl) POLN,Qvalue 0.020952,−1.364
same,log2 (TD/Ctrl) C20orf204,Qvalue 0.021231,−1.777
same,log2 (TD/Ctrl) TMEM54,Qvalue 0.021231,1.072
same,log2 (TD/Ctrl) RYR1,Qvalue 0.021465,1.055
same,log2 (TD/Ctrl) PHKG1,Qvalue 0.021994,1.955
same,log2 (TD/Ctrl) KLF6,Qvalue 0.022289,1.402
same,log2 (TD/Ctrl) LRRTM4,Qvalue 0.022315,−1.285
same,log2 (TD/Ctrl) PHOSPHO2,Qvalue 0.023229,−1.059
same,log2 (TD/Ctrl) MICOS10-NBL1,Qvalue 0.023249,1.952
same,log2 (TD/Ctrl) PDE3A,Qvalue 0.023634,1.882
same,log2 (TD/Ctrl) LARGE2,Qvalue 0.023651,1.17
same,log2 (TD/Ctrl) HES7,Qvalue 0.024442,1.525
same,log2 (TD/Ctrl) VSTM2B,Qvalue 0.024619,1.668
same,log2 (TD/Ctrl) INSM1,Qvalue 0.02493,1.259
same,log2 (TD/Ctrl) SIK1,Qvalue 0.025061,1.255
same,log2 (TD/Ctrl) IQANK1,Qvalue 0.02555,−1.07
same,log2 (TD/Ctrl) TRABD2A,Qvalue 0.026368,1.121
same,log2 (TD/Ctrl) RAB20,Qvalue 0.026593,1.265
same,log2 (TD/Ctrl) ADAM8,Qvalue 0.026923,−1.632
same,log2 (TD/Ctrl) EGR2,Qvalue 0.027245,1.924
same,log2 (TD/Ctrl) ACTRT3,Qvalue 0.027976,−1.89
same,log2 (TD/Ctrl) CILP2,Qvalue 0.028089,1.014
same,log2 (TD/Ctrl) KCNJ4,Qvalue 0.028153,1.521
same,log2 (TD/Ctrl) NGFR,Qvalue 0.0305,1.083
same,log2 (TD/Ctrl) GPR146,Qvalue 0.031918,−1.284
same,log2 (TD/Ctrl) SLC2A9,Qvalue 0.032594,−1.825
same,log2 (TD/Ctrl) FIBIN,Qvalue 0.032833,−1.931
same,log2 (TD/Ctrl) INSC,Qvalue 0.033388,1.775
same,log2 (TD/Ctrl) TRPM4,Qvalue 0.034028,1.164
same,log2 (TD/Ctrl) TOR4A,Qvalue 0.034573,−1.123
same,log2 (TD/Ctrl) ANXA3,Qvalue 0.034821,1.046
same,log2 (TD/Ctrl) F2RL2,Qvalue 0.035979,2.195
same,log2 (TD/Ctrl) GFRA2,Qvalue 0.036382,1.989
same,log2 (TD/Ctrl) CHD5,Qvalue 0.036855,1.476
same,log2 (TD/Ctrl) IER5L,Qvalue 0.037055,1.227
same,log2 (TD/Ctrl) CORO1A,Qvalue 0.03809,1.157
same,log2 (TD/Ctrl) DMRT1,Qvalue 0.038243,2.578
same,log2 (TD/Ctrl) TMEM200A,Qvalue 0.038553,2.008
same,log2 (TD/Ctrl) BIRC3,Qvalue 0.038759,1.213
same,log2 (TD/Ctrl) GJB7,Qvalue 0.040011,−1.706
same,log2 (TD/Ctrl) PABIR3,Qvalue 0.044085,1.001
same,log2 (TD/Ctrl) DAB1,Qvalue 0.044461,1.527
same,log2 (TD/Ctrl) CLIC5,Qvalue 0.046355,1.134
same,log2 (TD/Ctrl) LOC124904248,Qvalue 0.046402,−1.239
same,log2 (TD/Ctrl) FOXD4,Qvalue 0.046871,−1.765
same,log2 (TD/Ctrl) SNAI2,Qvalue 0.046941,1.1
same,log2 (TD/Ctrl) ANKRD20A1,Qvalue 0.047154,1.015
same,log2 (TD/Ctrl) MVP,Qvalue 0.048413,1.066
same,log2 (TD/Ctrl) SHISA8,Qvalue 0.048554,1.031
same,log2 (TD/Ctrl) TBC1D3C,Qvalue 0.04891,−2.321
same,log2 (TD/Ctrl) CDH1,Qvalue 0.049404,1.135
same,log2 (TD/Ctrl) ZNF296,Qvalue 0.049596,1.005
same,log2 (TD/Ctrl) IRX4,Qvalue 1.00 × 10^−4,3.763
same,log2 (TD/Ctrl) LYPD6,Qvalue 1.04 × 10^−4,−1.124
same,log2 (TD/Ctrl) TGFB1,Qvalue 1.04 × 10^−9,1.683
same,log2 (TD/Ctrl) SMOX,Qvalue 1.04 × 10^−10,1.479
same,log2 (TD/Ctrl) GPR3,Qvalue 1.05 × 10^−12,3.013
same,log2 (TD/Ctrl) PMAIP1,Qvalue 1.07 × 10^−13,1.02
same,log2 (TD/Ctrl) CCN1,Qvalue 1.09 × 10^−13,1.83
same,log2 (TD/Ctrl) BAX,Qvalue 1.10 × 10^−10,−1.136
same,log2 (TD/Ctrl) ACTBL2,Qvalue 1.10 × 10^−21,2.68
same,log2 (TD/Ctrl) CREM,Qvalue 1.18 × 10^−18,1.319
same,log2 (TD/Ctrl) TFPI,Qvalue 1.19 × 10^−6,1.103
same,log2 (TD/Ctrl) CFAP44,Qvalue 1.21 × 10^−4,−1.2179
same,log2 (TD/Ctrl) SPRY4,Qvalue 1.22 × 10^−4,1.583
same,log2 (TD/Ctrl) GCNT1,Qvalue 1.22 × 10^−6,−1.113
same,log2 (TD/Ctrl) DUSP1,Qvalue 1.23 × 10^−13,2.837
same,log2 (TD/Ctrl) MAFK,Qvalue 1.26 × 10^−13,1.561
same,log2 (TD/Ctrl) GEM,Qvalue 1.30 × 10^−33,2.896
same,log2 (TD/Ctrl) EML2,Qvalue 1.31 × 10^−5,1.098
same,log2 (TD/Ctrl) ECEL1,Qvalue 1.32 × 10^−6,2.018
same,log2 (TD/Ctrl) NFATC1,Qvalue 1.32 × 10^−9,1.146
same,log2 (TD/Ctrl) LBHD1,Qvalue 1.34 × 10^−6,−1.453
same,log2 (TD/Ctrl) GNG4,Qvalue 1.34 × 10^−10,1.107
same,log2 (TD/Ctrl) GFPT2,Qvalue 1.35 × 10^−4,1.08
same,log2 (TD/Ctrl) HOXB6,Qvalue 1.35 × 10^−4,−1.274
same,log2 (TD/Ctrl) VGF,Qvalue 1.36 × 10^−15,2.99
same,log2 (TD/Ctrl) USP4,Qvalue 1.38 × 10^−4,1.002
same,log2 (TD/Ctrl) CASD1,Qvalue 1.39 × 10^−4,−1.007
same,log2 (TD/Ctrl) SGK1,Qvalue 1.39 × 10^−7,1.322
same,log2 (TD/Ctrl) PHLDA1,Qvalue 1.40 × 10^−4,1.224
same,log2 (TD/Ctrl) NDRG1,Qvalue 1.40 × 10^−27,1.674
same,log2 (TD/Ctrl) EMILIN2,Qvalue 1.41 × 10^−13,1.304
same,log2 (TD/Ctrl) TPM4,Qvalue 1.41 × 10^−16,1.086
same,log2 (TD/Ctrl) FOSB,Qvalue 1.44 × 10^−4,2.796
same,log2 (TD/Ctrl) IER3,Qvalue 1.44 × 10^−12,1.677
same,log2 (TD/Ctrl) AHR,Qvalue 1.47 × 10^−8,1.016
same,log2 (TD/Ctrl) SPINT1,Qvalue 1.47 × 10^−8,1.307
same,log2 (TD/Ctrl) PTP4A1,Qvalue 1.47 × 10^−41,1.5
same,log2 (TD/Ctrl) FOSL2,Qvalue 1.49 × 10^−13,1.385
same,log2 (TD/Ctrl) GADD45A,Qvalue 1.52 × 10^−19,1.573
same,log2 (TD/Ctrl) FOS,Qvalue 1.54 × 10^−5,3.22
same,log2 (TD/Ctrl) SMAD6,Qvalue 1.54 × 10^−5,−1.023
same,log2 (TD/Ctrl) FADS2,Qvalue 1.54 × 10^−10,−1.136
same,log2 (TD/Ctrl) DNAJB5,Qvalue 1.56 × 10^−4,1.316
